Patent publication US8536215B2, “Pyrazole microbiocides” (Syngenta Crop Protection LLC, priority 2010, dated 2013)

Key:
[1] = tested on: Botrytis cinerea; assay: Action against Botrytis cinerea - fungal growth assay; type: cell-based; conditions: 0.002% active ingredient, PDB broth, 24° C., photometric after 3-4 days
Protocol: (§1) Conidia of the fungus from cryogenic storage was directly mixed into nutrient broth (PDB potato dextrose broth). After placing a (DMSO) solution of the test compounds (0.002% active ingredient) into a microtiter plate (96-well format) the nutrient broth containing the fungal spores was added. The test plates were incubated at 24° C. and the inhibition of growth was measured photometrically after 3-4 days. The activity of a compound was expressed as fungal growth inhibition (0=no growth inhibition, ratings of 80% to 99% mean good to very good inhibition, 100%=complete inhibition).

[2] = tested on: Mycosphaerella arachidis (Cercospora arachidicola [Anamorph]); assay: Action against Mycosphaerella arachidis (early leaf spot of groundnut) - fungal growth assay; type: cell-based; conditions: 0.002% active ingredient, PDB broth, 24° C., photometric after 6-7 days
Protocol: as §1, with “storage were” for “storage was”, “after 6-7” for “after 3-4”

[3] = tested on: Septoria tritici; assay: Action against Septoria tritici - fungal growth assay; type: cell-based; conditions: Zymoseptoria tritici; 0.002% active ingredient, PDB broth, 24° C., photometric after 72 hrs
Protocol: as §1, with “storage were” for “storage was”, “was determined” for “was measured”, “after 72 hrs.” for “after 3-4 days.”

[4] = tested on: Monographella nivalis (Anamorph: Fusarium nivale, Microdochium nivale); assay: Action against Monographella nivalis (snow mould) - fungal growth assay; type: cell-based; conditions: 0.002% active ingredient, PDB broth, 24° C., photometric after 72 hrs
Protocol: as §1, with “storage were” for “storage was”, “a DMSO-solution” for “a (DMSO) solution”, “after 72 hrs” for “after 3-4 days. The activity of a compound was expressed as fungal growth inhibition”

[5] = tested on: Rhizoctonia Solani; assay: Action against Rhizoctonia solani - fungal growth assay; type: cell-based; conditions: 0.002% active ingredient, PDB broth, 24° C., photometric after 3-4 days
Protocol: as §1, with “Mycelial fragments of a newly grown liquid culture” for “Conidia”, “were” for “from cryogenic storage was”

[6] = tested on: Erysiphe graminis f. sp. tritici; assay: Action against Erysiphe graminis f. sp. tritici (wheat powdery mildew), wheat leaf segments, preventive; type: in vivo; conditions: Blumeria graminis, foliar, 168 h; 0.02% active ingredient sprayed on wheat leaf segments, assessed 7 days after inoculation; read-out: preventive fungicidal activity (inhibition)
Protocol: (§2) Wheat leaf segments were placed on agar in multiwell plates (24-well format) and sprayed with test solutions (0.02% active ingredient). After drying, the leaf disks were inoculated with a spore suspension of the fungus. After appropriate incubation the activity of a compound was assessed 7 days after inoculation as preventive fungicidal activity.

[7] = tested on: Pyrenophora teres; assay: Action against Pyrenophora teres (net blotch) on barley leaf segments, preventive; type: in vivo; conditions: foliar, 96 h, 0.02% active ingredient sprayed on barley leaf segments, assessed 4 days after inoculation, read-out: preventive fungicidal activity (inhibition)
Protocol: as §2, with “Barley” for “Wheat”, “4” for “7”

[8] = tested on: Puccinia recondita; assay: Protective action against Puccinia recondita (brown rust) on wheat leaf segments; type: in vivo; conditions: foliar, 192 h, 0.02% active ingredient sprayed on wheat leaf segments, assessed 8 days after inoculation, read-out: preventive fungicidal activity (inhibition)
Protocol: as §2, with “8” for “7”

[9] = tested on: Puccinia recondita; assay: Curative action against Puccinia recondita (brown rust) on wheat leaf segments; type: in vivo; conditions: foliar, 0.02% active ingredient sprayed one day after inoculation of wheat leaf segments, assessed 8 days after inoculation, read-out: curative fungicidal activity (inhibition)
Protocol: Wheat leaf segments were placed on agar in multiwell plates (24-well format) and inoculated with a spore suspension of the fungus. One day after inoculation the leaf segments were sprayed with test solutions (0.02% active ingredient). After appropriate incubation the activity of a compound was assessed 8 days after inoculation as curative fungicidal activity.

Row | SMILES | inhibition at 0.002 % strength [1] | inhibition at 0.002 % strength [2] | inhibition at 0.002 % strength [3] | inhibition at 0.002 % strength [4] | inhibition at 0.002 % strength [5] | inhibition at 0.02 % strength [6] | inhibition at 0.02 % strength [7] | inhibition at 0.02 % strength [8] | inhibition at 0.02 % strength [9] | melting point
1 | CON(C(=O)c1cn(C)nc1C(F)F)C(C)C1CCC(C)=CC1(C)C (single isomer, unassigned) [Compound 1.081 Diastereomer A, 3-difluoromethyl-1-methyl-1H-pyrazole-4-carboxylic acid methoxy-[1-(2,2,4-trimethyl-cyclohex-3-enyl)-ethyl]-amide] | ≥ 80% |  |  |  |  |  |  |  |  | 
2 | CON(C(=O)c1cn(C)nc1C(F)F)C(C)C1CC=C(C)CC1 (stereo not drawn) [Compound 1.049] | ≥ 80% | ≥ 80% | ≥ 80% | ≥ 80% | ≥ 80% | ≥ 80% | ≥ 80% |  |  | 
3 | CON(C(=O)c1cn(C)nc1C(F)F)C(C)C1CCC(C)=CC1(C)C (stereo not drawn) [Compound 1.081, 3-difluoromethyl-1-methyl-1H-pyrazole-4-carboxylic acid methoxy-[1-(2,2,4-trimethyl-cyclohex-3-enyl)-ethyl]-amide] | ≥ 80% | ≥ 80% | ≥ 80% | ≥ 80% | ≥ 80% | ≥ 80% | ≥ 80% | ≥ 80% | ≥ 80% | 95 to 105 °C
